Measurements from patent US10829464B2, “Benzoheterocyclic alkylamine compounds and use thereof” (priority 2016, dated 2020).
≈ marks a conversion by molar mass, not a printed value. Like-named read-outs stand apart in the source and are kept apart here.

How the values were obtained:
S. aureus strain Newman = assay: IC50 determination of inhibition of staphyloxanthin synthesis; assay type: cell-based; settings: Staphylococcus aureus
Experimental: (§1) Selection of compound concentrations: based on the preliminary screening results, the ability of each compound to inhibit staphyloxanthin synthesis was determined. […] According to the assay results, 10 different concentration gradients were designed for each compound, such that the ability to inhibit staphyloxanthin synthesis comprised substantially from 0% to 100%.
(§2) Culture of the strains: single colonies of strain Newman and crtN mutant strain were picked from TSA plates, added into test tubes containing 4 mL of sterile TSB medium, and cultured at 37° C. and 250 rpm for 12 h for later use.
(§3) The relative level of staphyloxanthin synthesis at each concentration of the compound of the invention=A450 (sample)/A450 (negative control)*100%. With the molar concentration of the compound as the abscissa and the relative level of staphyloxanthin synthesis as the ordinate, a curve fitting of inhibitor concentration-inhibition rate (log(inhibitor) vs response) was performed in Graphpad prism 5.0 software, and the IC50 of the compound for inhibiting staphyloxanthin synthesis was calculated by software based on the fitting results.
S. aureus was selected for IC50 determination with respect to activity of inhibiting staphyloxanthin synthesis. […]

CrtN = CrtN (Staphylococcus aureus, UniProt O07855); assay: biochemical
Experimental: (1) Preparation of Diapophytoene Emulsion as Substrate […]
After completion of the reaction, the reaction was terminated by adding 500 μL of methanol, and the reaction solution was transferred to a 15 mL centrifuge tube; the reaction solution was added with 700 μL of chloroform, and vortexed thoroughly to extract the reacted staphyloxanthin, and then centrifuged at 7000 rpm for 3 min, and the chloroform layer was carefully pipetted; the remaining reaction solution was extracted by further adding 500 μL of chloroform thereto, and the extracts were combined and concentrated to dryness under vacuum; the concentrated product was dissolved by adding 200 μL of chloroform, and pipetted into a 96-well microplate, and then the absorbance was measured at 450 nm for quantification of the CrtN product diaponeurosporene.

S. aureus [1] = assay: Hydrogen peroxide killing assay; assay type: cell-based, Staphylococcus aureus; settings: four strains, 1.5% hydrogen peroxide, 1 h
From the text: (§4) Compound IA-25 was used as a representative compound. The main object of the invention was to impair the ability of bacteria to resist immunological killing in vivo by inhibiting staphyloxanthins synthesis.
The calculated survival rate of bacteria after hydrogen peroxide killing=(count of bacteria grown in sample after hydrogen peroxide killing×dilution factor)/(count of bacteria grown in control group×dilution factor)×100%.

CYP enzyme subtype 3A4T = CYP enzyme subtype 3A4T (Homo sapiens, UniProt P08684); assay: Inhibition assay on hepatic CYP450 enzyme; assay type: in vitro ADME; settings: CYP 3A4T; read-out: Half inhibitory concentration (IC50)
NRS271 (SPA) = assay: IC50 of inhibition of staphyloxanthin synthesis in MRSA strain; assay type: cell-based; settings: Staphylococcus aureus, NRS271, read-out: Inhibitory activity on staphyloxanthin IC50
Experimental: as §1, §2, §3
(§5) Compound IA-25 was used as a representative compound. In addition to replacement of S aureus strain Newman with other MRSA strains as described in Table 3, the rest of the method is the same as in Examples 61-62.

NF65Y (CHN) = assay: as above; assay type: cell-based; settings: Staphylococcus aureus, read-out: Inhibitory activity on staphyloxanthin IC50
Experimental: as §1, §2, §3, §5

HS663 (CHN) = assay: as above; assay type: cell-based; settings: Staphylococcus aureus, read-out: Inhibitory activity on staphyloxanthin IC50
Experimental: as §1, §2, §3, §5

NRS108 (FRA) = assay: as above; assay type: cell-based; settings: Staphylococcus aureus, NRS108, read-out: Inhibitory activity on staphyloxanthin IC50
Experimental: as §1, §2, §3, §5

LRSA205 (CHN) = assay: as above; assay type: cell-based; settings: Staphylococcus aureus, read-out: Inhibitory activity on staphyloxanthin IC50
Experimental: as §1, §2, §3, §5

LRSA56 (CHN) = assay: as above; assay type: cell-based; settings: Staphylococcus aureus, read-out: Inhibitory activity on staphyloxanthin IC50
Experimental: as §1, §2, §3, §5

XN108 (CHN) = assay: as above; assay type: cell-based; settings: Staphylococcus aureus, read-out: Inhibitory activity on staphyloxanthin IC50
Experimental: as §1, §2, §3, §5

NRS100 (USA) = assay: as above; assay type: cell-based; settings: Staphylococcus aureus, NRS100, read-out: Inhibitory activity on staphyloxanthin IC50
Experimental: as §1, §2, §3, §5

LRSA202 (CHN) = assay: as above; assay type: cell-based; settings: Staphylococcus aureus, read-out: Inhibitory activity on staphyloxanthin IC50
Experimental: as §1, §2, §3, §5

NRS70 (JPN) = assay: as above; assay type: cell-based; settings: Staphylococcus aureus, NRS70, read-out: Inhibitory activity on staphyloxanthin IC50
Experimental: as §1, §2, §3, §5

CYP enzyme subtype 2C9 = CYP enzyme subtype 2C9 (Homo sapiens, UniProt P11712); assay: Inhibition assay on hepatic CYP450 enzyme; assay type: in vitro ADME; settings: CYP 2C9; read-out: Half inhibitory concentration (IC50)
CYP enzyme subtype 2D6 = CYP enzyme subtype 2D6 (Homo sapiens, UniProt P10635); assay: Inhibition assay on hepatic CYP450 enzyme; assay type: in vitro ADME; settings: CYP 2D6; read-out: Half inhibitory concentration (IC50)
[2] = rat, in vivo, 1000 mg/kg
From the text: Thirty rats weighing 180-220 g, half male and half female, were picked out and randomly divided into three groups.

in vitro = settings: mouse, microsomes
Trichophyton rubrum = assay: In vitro antifungal assay (micro liquid-based dilution); assay type: cell-based; settings: read-out: Antifungal Activities, MIC80
CYP enzyme subtype 2C19 = CYP enzyme subtype 2C19 (Homo sapiens, UniProt P33261); assay: Inhibition assay on hepatic CYP450 enzyme; assay type: in vitro ADME; settings: CYP 2C19; read-out: Half inhibitory concentration (IC50)
CYP enzyme subtype 2C8 = CYP enzyme subtype 2C8 (Homo sapiens, UniProt P10632); assay: Inhibition assay on hepatic CYP450 enzyme
CYP enzyme subtype 1A2 = CYP enzyme subtype 1A2 (Homo sapiens, UniProt P05177); assay: Inhibition assay on hepatic CYP450 enzyme; assay type: in vitro ADME; settings: CYP 1A2; read-out: Half inhibitory concentration (IC50)
Tinea barbae = assay: In vitro antifungal assay (micro liquid-based dilution); assay type: cell-based; settings: read-out: Antifungal Activities, MIC80
S. aureus [3] = assay: Human whole blood killing assay; assay type: cell-based, Staphylococcus aureus; settings: four strains, fresh human blood, 6 h
From the text: as §4
The calculated survival rate of bacteria after blood killing=(count of bacteria grown in sample after blood killing×dilution factor)/(count of bacteria grown in control group×dilution factor)×100%.

USA400 MW2 = assay: IC50 of inhibition of staphyloxanthin synthesis in drug-resistant strain; assay type: cell-based; settings: Staphylococcus aureus
Experimental: as §1, §2, §3
(§6) In addition to replacement of S. aureus strain Newman with USA 400 MW 2, USA 300 LAC and Mu 50, the rest of the method is the same as in Examples 58-59.
as §5

Mu50 = assay: as above; assay type: cell-based; settings: Staphylococcus aureus
Experimental: as §1, §2, §3, §6, §5

USA300 LAC = assay: as above; assay type: cell-based; settings: Staphylococcus aureus
Experimental: as §1, §2, §3, §6, §5

Sequence of CrtN (O07855 whole entry): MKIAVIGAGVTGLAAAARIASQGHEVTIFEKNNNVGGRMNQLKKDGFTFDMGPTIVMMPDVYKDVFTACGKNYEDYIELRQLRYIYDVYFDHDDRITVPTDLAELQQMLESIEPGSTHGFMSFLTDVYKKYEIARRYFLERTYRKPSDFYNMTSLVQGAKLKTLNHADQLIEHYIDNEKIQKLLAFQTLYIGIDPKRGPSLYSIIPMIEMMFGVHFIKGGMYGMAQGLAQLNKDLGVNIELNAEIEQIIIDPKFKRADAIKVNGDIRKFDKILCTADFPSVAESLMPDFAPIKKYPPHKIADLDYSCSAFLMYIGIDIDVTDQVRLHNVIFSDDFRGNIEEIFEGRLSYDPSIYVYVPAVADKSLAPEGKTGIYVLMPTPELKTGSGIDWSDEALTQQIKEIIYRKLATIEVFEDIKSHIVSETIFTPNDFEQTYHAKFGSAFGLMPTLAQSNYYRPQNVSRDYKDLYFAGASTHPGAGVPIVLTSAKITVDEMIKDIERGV
Sequence of CYP enzyme subtype 2C8 (P10632 whole entry): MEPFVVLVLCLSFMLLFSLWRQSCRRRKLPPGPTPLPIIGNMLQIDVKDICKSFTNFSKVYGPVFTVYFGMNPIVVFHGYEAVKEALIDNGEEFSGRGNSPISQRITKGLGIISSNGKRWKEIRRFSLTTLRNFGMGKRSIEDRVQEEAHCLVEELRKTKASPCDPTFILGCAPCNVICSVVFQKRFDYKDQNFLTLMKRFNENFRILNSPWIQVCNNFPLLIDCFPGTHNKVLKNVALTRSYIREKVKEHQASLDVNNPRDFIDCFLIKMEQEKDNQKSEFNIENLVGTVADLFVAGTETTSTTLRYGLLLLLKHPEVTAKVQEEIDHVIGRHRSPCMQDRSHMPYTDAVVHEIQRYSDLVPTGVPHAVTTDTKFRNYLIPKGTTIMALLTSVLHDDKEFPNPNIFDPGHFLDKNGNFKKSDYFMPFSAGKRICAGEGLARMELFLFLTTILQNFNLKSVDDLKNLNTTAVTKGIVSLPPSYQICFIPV
Sequence of CYP enzyme subtype 2D6 (P10635 whole entry): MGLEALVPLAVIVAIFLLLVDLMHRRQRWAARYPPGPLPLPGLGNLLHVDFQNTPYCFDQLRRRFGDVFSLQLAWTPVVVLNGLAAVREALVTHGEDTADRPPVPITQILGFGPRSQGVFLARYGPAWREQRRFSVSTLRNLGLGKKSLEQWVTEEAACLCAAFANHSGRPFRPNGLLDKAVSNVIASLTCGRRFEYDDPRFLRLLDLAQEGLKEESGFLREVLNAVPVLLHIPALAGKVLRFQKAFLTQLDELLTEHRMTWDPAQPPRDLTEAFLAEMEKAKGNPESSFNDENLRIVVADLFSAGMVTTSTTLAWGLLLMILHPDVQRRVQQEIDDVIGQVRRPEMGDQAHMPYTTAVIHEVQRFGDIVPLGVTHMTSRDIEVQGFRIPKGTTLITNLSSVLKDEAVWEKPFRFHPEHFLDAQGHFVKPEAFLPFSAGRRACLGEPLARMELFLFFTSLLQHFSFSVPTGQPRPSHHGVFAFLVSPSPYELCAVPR
Sequence of CYP enzyme subtype 2C19 (P33261 whole entry): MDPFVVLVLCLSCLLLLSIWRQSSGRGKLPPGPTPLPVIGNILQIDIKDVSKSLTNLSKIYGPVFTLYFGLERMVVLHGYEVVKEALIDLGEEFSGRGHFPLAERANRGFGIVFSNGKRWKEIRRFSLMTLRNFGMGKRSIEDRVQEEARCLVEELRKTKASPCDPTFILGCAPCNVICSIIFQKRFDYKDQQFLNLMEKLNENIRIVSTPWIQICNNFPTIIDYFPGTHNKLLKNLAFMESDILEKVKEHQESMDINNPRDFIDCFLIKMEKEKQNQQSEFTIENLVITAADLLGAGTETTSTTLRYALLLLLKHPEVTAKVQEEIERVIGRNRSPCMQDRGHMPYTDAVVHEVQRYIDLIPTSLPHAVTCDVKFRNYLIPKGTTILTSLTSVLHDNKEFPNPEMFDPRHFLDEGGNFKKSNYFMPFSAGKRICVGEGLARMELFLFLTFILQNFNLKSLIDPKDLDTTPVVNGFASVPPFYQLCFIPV
Sequence of CYP enzyme subtype 3A4T (P08684 whole entry): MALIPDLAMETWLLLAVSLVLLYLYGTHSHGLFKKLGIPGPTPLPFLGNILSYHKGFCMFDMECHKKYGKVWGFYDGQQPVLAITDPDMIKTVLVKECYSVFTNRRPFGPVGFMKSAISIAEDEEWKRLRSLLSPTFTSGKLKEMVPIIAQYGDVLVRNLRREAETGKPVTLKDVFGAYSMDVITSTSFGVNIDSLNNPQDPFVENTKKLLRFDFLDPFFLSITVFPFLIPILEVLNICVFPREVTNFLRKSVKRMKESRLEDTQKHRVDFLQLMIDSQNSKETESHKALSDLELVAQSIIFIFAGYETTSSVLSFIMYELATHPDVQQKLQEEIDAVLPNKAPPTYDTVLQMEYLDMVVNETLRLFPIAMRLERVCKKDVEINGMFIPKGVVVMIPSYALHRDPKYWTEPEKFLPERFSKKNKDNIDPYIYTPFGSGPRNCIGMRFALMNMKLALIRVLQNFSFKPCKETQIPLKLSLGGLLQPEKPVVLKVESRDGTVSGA
Sequence of CYP enzyme subtype 1A2 (P05177 whole entry): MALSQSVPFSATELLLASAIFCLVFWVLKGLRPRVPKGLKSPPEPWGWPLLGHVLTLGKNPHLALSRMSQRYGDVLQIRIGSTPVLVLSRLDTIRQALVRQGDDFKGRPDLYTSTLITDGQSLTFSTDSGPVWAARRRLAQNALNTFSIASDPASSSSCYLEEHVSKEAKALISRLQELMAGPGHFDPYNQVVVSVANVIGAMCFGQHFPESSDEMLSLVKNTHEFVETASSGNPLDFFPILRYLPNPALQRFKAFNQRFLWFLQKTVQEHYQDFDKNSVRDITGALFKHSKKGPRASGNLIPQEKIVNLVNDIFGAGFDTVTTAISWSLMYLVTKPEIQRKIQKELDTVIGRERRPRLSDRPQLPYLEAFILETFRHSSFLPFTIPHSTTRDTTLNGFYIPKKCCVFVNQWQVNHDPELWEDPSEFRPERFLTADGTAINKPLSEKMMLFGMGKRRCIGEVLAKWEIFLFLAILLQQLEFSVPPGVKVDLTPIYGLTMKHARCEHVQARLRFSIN
Sequence of CYP enzyme subtype 2C9 (P11712 whole entry): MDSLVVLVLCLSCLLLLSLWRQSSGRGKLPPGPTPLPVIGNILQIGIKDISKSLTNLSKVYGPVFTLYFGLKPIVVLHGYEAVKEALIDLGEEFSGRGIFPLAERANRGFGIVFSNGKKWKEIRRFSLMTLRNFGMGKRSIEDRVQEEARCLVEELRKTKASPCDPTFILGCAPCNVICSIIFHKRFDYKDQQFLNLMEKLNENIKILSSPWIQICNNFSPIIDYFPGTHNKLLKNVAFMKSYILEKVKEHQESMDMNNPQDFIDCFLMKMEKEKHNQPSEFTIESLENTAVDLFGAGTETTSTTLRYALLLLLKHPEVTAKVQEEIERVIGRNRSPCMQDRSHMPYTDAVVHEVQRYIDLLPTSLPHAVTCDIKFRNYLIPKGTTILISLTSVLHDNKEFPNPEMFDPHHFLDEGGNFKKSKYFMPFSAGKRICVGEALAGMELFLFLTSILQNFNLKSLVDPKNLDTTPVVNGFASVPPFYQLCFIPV

CN(C/C=C/c1ccc(-c2ccccc2)cc1)Cc1coc2ccccc12 [Compound IA-25, (E)-N-methyl-N-[(benzofuran-3-yl)methylene]-3-(4-phenylphenyl)-prop-2-en-1-amine]
IC50 (S. aureus strain Newman; Newman, Table 3, read-out: Inhibitory activity on staphyloxanthin IC50): 2 ± 0.1 nM
IC50 (S. aureus strain Newman; S. aureus strain Newman, Table 1, read-out: IC50, inhibitory activity on staphyloxanthin synthesis): 2 ± 0.1 nM
IC50 (CrtN): 373 nM
bacterial survival rate after hydrogen peroxide killing (S. aureus [1]): less than 5%
IC50 (CYP enzyme subtype 3A4T): > 10000 nM
IC50 (NRS271 (SPA)): 0.4 ± 0.01 nM
IC50 (NF65Y (CHN)): 1 ± 0.02 nM
IC50 (HS663 (CHN)): 0.02 ± 0.01 nM
IC50 (NRS108 (FRA)): 5.6 ± 0.02 nM
IC50 (LRSA205 (CHN)): 10.5 ± 0.4 nM
IC50 (LRSA56 (CHN)): 1.8 ± 0.1 nM
IC50 (XN108 (CHN)): 0.2 ± 0.04 nM
IC50 (NRS100 (USA)): 1.2 ± 0.1 nM
IC50 (LRSA202 (CHN)): 1.6 ± 0.2 nM
IC50 (NRS70 (JPN)): 1.7 ± 0.01 nM
IC50 (CYP enzyme subtype 2C9): > 10000 nM
IC50 (CYP enzyme subtype 2D6): 3200 nM
abnormality in the dissected organs [2]: there was not any abnormality in the dissected organs
death or poor behavior events [2]: did not result in any death or poor behavior events in the rats
half-life (in vitro): 0.833 to 2 h
MIC80 (Trichophyton rubrum): 64 µg/mL (≈ 181 µM)
IC50 (CYP enzyme subtype 2C19): > 10000 nM
IC50 (CYP enzyme subtype 2C8): > 10000 nM
IC50 (CYP enzyme subtype 1A2): 5690 nM
MIC80 (Tinea barbae): > 64 µg/mL
bacterial survival rate after human blood killing (S. aureus [3]): less than 3%
IC50 (USA400 MW2; USA400, read-out: IC50, staphyloxanthin synthesis in drug-resistant strain): 1.9 ± 0.5 nM
IC50 (USA400 MW2; USA400, read-out: Inhibitory activity on staphyloxanthin IC50): 1.9 ± 1.2 nM
IC50 (Mu50; read-out: IC50, staphyloxanthin synthesis in drug-resistant strain): 0.8 ± 1.4 nM
IC50 (Mu50; read-out: Inhibitory activity on staphyloxanthin IC50): 0.8 ± 0.01 nM
IC50 (USA300 LAC; USA300, read-out: IC50, staphyloxanthin synthesis in drug-resistant strain): 7.9 ± 1.2 nM
IC50 (USA300 LAC; USA300, read-out: Inhibitory activity on staphyloxanthin IC50): 7.9 ± 0.2 nM
